We go through 33 molecules from ChEMBL document CHEMBL1134931, “Aminoalkoxybiphenylnitriles as histamine-3 receptor ligands” (Bioorg Med Chem Lett, 2002).

For assay [1], the target named is T1, Histamine H2 receptor (Homo sapiens, UniProt P25021). Nature of the assay: Binding affinity to the human cortical histamine H2 receptor.
The target of assay [2] is T2, Histamine H1 receptor (Homo sapiens, UniProt P35367). Nature of the assay: Binding affinity of human cortical histamine H1 receptor.
Assay [3] concerns the target T3, Histamine H3 receptor (Homo sapiens, UniProt Q9Y5N1). Nature of the assay: Binding affinity at human cloned Histamine H3 receptor.
Assay [4] deals with T4, Histamine H3 receptor (Rattus norvegicus, UniProt Q9QYN8). Nature of the assay: Binding affinity at rat cortical Histamine H3 receptor.
T4 sequence (Q9QYN8 whole entry): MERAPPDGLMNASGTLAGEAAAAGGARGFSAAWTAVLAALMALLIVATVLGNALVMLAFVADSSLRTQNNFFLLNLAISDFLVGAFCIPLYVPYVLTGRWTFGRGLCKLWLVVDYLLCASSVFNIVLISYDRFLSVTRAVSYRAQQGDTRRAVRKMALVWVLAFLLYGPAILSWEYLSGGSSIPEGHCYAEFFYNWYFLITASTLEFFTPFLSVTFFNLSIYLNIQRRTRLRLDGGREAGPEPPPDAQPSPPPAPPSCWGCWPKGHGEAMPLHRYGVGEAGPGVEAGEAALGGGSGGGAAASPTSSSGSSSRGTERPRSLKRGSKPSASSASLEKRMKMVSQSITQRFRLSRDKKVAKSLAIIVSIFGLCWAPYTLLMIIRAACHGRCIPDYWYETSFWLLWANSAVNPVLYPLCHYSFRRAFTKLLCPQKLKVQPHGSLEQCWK
The target of assay [5] is T1, Histamine H2 receptor. Nature of the assay: Binding affinity at human cortical Histamine 2 receptor.
For assay [6], the target named is T2, Histamine H1 receptor. Nature of the assay: Binding affinity at human cortical Histamine 1 receptor.
For assay [7], the target named is T4, Histamine H3 receptor. Nature of the assay: Binding affinity at rat cortical Histamine 3 receptor.
In assay [8] the target is T3, Histamine H3 receptor. Nature of the assay: Binding affinity at human cloned Histamine 3 receptor.

T1 sequence (P25021 whole entry): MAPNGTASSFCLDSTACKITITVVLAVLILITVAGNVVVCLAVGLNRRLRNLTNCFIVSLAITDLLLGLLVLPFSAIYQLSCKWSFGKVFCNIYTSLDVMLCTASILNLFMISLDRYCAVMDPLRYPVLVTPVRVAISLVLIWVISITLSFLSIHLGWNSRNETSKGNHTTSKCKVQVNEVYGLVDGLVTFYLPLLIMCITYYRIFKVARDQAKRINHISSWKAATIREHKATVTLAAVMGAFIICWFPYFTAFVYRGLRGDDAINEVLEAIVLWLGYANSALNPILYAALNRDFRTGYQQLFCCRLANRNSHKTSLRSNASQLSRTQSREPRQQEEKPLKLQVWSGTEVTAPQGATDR
T2 sequence (P35367 whole entry): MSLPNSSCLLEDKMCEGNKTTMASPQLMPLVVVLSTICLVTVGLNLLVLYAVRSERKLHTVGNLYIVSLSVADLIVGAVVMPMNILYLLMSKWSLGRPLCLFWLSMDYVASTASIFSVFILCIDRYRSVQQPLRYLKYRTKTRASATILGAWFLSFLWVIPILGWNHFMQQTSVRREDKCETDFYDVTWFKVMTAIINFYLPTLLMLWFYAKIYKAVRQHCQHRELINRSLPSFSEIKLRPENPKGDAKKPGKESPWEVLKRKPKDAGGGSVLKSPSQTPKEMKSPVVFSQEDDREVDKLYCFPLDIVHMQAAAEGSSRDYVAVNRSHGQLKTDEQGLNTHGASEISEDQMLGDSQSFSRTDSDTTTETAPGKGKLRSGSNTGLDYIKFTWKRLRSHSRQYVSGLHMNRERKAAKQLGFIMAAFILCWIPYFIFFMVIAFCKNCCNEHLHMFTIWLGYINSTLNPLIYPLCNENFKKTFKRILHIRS
T3 sequence (Q9Y5N1 whole entry): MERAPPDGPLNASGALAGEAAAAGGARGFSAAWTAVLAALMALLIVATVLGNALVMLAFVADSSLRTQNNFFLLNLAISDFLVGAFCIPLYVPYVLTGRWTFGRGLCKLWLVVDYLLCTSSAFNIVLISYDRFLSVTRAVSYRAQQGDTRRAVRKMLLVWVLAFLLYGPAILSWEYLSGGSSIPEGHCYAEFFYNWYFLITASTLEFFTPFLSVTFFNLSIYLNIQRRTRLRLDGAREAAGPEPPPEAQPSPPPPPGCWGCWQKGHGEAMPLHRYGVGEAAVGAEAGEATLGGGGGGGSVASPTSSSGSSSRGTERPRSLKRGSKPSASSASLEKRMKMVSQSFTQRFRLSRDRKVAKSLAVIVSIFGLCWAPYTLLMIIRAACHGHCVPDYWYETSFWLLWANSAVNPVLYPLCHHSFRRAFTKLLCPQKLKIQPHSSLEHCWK

The Ki is a dissociation constant, usually derived from enzyme kinetics or from competition with a known ligand. Higher therefore signals weaker binding. For `CCOC(=O)N1CCN(CCCOc2ccc(-c3cc[nH]c3)cc2)CC1`, the Ki on Histamine H2 receptor [1] was 12.9 µM; at Histamine H1 receptor [2], 0.501 µM; on Histamine H3 receptor [3], 1 µM; at Histamine H3 receptor [4] it was 0.0562 µM.
For `N#Cc1ccc(-c2ccc(OCCCN3CCC(O)CC3)cc2)cc1`, the Ki at Histamine H2 receptor [1] was 10 µM; at Histamine H1 receptor [2] it was 0.575 µM; on Histamine H3 receptor [3], 0.123 µM; at Histamine H3 receptor [4], 0.0316 µM.
Regarding `N#Cc1ccc(-c2ccc(OCCCN3CCC(N)CC3)cc2)cc1`, the inhibition constant (Ki) was 33.9 µM on Histamine H2 receptor [5], 3.55 µM at Histamine H1 receptor [6], 0.129 µM on Histamine H3 receptor [7] and 0.2 µM at Histamine H3 receptor [8].
For the molecule `CC1CCCCN1CCCOc1ccc(-c2ccc(C#N)cc2)cc1` (stereo not given), the Ki is 18.6 µM at Histamine H2 receptor [1], 3.47 µM on Histamine H1 receptor [2], 0.00708 µM at Histamine H3 receptor [3] and 0.0229 µM at Histamine H3 receptor [4].
`N#Cc1ccc(-c2ccc(OCCCN3CC[C@@H](O)C3)cc2)cc1`: the Ki at Histamine H2 receptor [5] is 17 µM; on Histamine H1 receptor [6], 4.47 µM; at Histamine H3 receptor [8] it was 0.00832 µM.
Turning to `CCOC(=O)N1CCN(CCCOc2ccc(-c3c[nH]cn3)cc2)CC1`, the Ki at Histamine H2 receptor [1] is 69.2 µM; at Histamine H1 receptor [2] it was 1.48 µM; at Histamine H3 receptor [4] it was 0.871 µM.
For `N#Cc1ccc(-c2ccc(OCCCN3CC[C@@H](N)C3)cc2)cc1`, the Ki on Histamine H2 receptor [5] is 7.41 µM; on Histamine H1 receptor [6] it was 13.8 µM; on Histamine H3 receptor [7], 0.0631 µM; on Histamine H3 receptor [8], 0.00617 µM.
For the molecule `CCOC(=O)N1CCN(CCCOc2ccc(-c3cccc(C#N)c3)cc2)CC1`, the values for the Ki at Histamine H2 receptor [5] and at Histamine H1 receptor [6] were 24 µM and 0.38 µM, respectively.
Regarding `CCOC(=O)N1CCN(CCCOc2ccc(-c3ccc(Cl)cc3)cc2)CC1`, the results for the inhibitory constant (Ki) at Histamine H2 receptor [5], on Histamine H1 receptor [6] and at Histamine H3 receptor [7] were 5.62 µM, 0.355 µM and 0.191 µM, respectively.
`CCOC(=O)N1CCN(CCCOc2ccc(-c3ccc(OC)cc3)cc2)CC1`: the Ki at Histamine H2 receptor [1] was 100 µM; on Histamine H1 receptor [2], 0.355 µM.
Regarding `CC1CCCC(C)N1CCCOc1ccc(-c2ccc(C#N)cc2)cc1` (stereo not given), the inhibition constant (Ki) was 24 µM at Histamine H2 receptor [1], 3.98 µM on Histamine H1 receptor [2], 0.00214 µM on Histamine H3 receptor [3] and 0.0162 µM on Histamine H3 receptor [4].
Take `CCOC(=O)N1CCN(CCCOc2ccc(-c3ccsc3)cc2)CC1`: the Ki at Histamine H2 receptor [1] is 97.7 µM; at Histamine H1 receptor [2], 0.759 µM; on Histamine H3 receptor [4], 0.209 µM.
On to `N#Cc1ccc(-c2ccc(OCCCN3CCNCC3)cc2)cc1`, for which the inhibition constant Ki on Histamine H2 receptor [1] is 22.9 µM; on Histamine H1 receptor [2], 8.91 µM; on Histamine H3 receptor [3], 0.117 µM; at Histamine H3 receptor [4], 0.589 µM.
In the case of `CCOC(=O)N1CCN(CCCOc2ccc(-c3ccc(C#N)cc3C)cc2)CC1`, the Ki at Histamine H2 receptor [1] was 3.98 µM; on Histamine H1 receptor [2] it was 0.0275 µM; at Histamine H3 receptor [4], 0.102 µM.
As to `C[C@@H]1CC[C@@H](C)N1CCCOc1ccc(-c2ccc(C#N)cc2)cc1`, the Ki was 9.12 µM on Histamine H2 receptor [1], 0.562 µM on Histamine H1 receptor [2], 0.000676 µM at Histamine H3 receptor [3] and 0.00646 µM on Histamine H3 receptor [4].
Consider `CCOC(=O)N1CCN(CCCOc2ccc(-c3ccccc3[N+](=O)[O-])cc2)CC1`, for which the inhibitory constant (Ki) at Histamine H2 receptor [5] is 7.59 µM; on Histamine H1 receptor [6], 0.162 µM; at Histamine H3 receptor [7] it was 0.617 µM.
With `N#Cc1ccc(-c2ccc(OCCCN3CCCNCC3)cc2)cc1`, the inhibitory constant (Ki) on Histamine H2 receptor [1] was 7.76 µM; on Histamine H1 receptor [2], 3.89 µM; at Histamine H3 receptor [3], 0.00832 µM; on Histamine H3 receptor [4] it was 0.0135 µM.
Take `N#Cc1ccc(-c2ccc(OCCCN3CCOCC3)cc2)cc1`: the inhibitory constant (Ki) on Histamine H2 receptor [1] was 38 µM; at Histamine H1 receptor [2], 3.24 µM; at Histamine H3 receptor [3], 0.0363 µM; at Histamine H3 receptor [4] it was 0.0251 µM.
In the case of `CN[C@@H]1CCN(CCCOc2ccc(-c3ccc(C#N)cc3)cc2)C1`, the figures for the inhibition constant Ki on Histamine H2 receptor [1], on Histamine H1 receptor [2] and on Histamine H3 receptor [3] were 10 µM, 3.72 µM and 0.00851 µM, respectively.
Take `N#Cc1ccc(-c2ccc(OCCCN3CCCC(O)C3)cc2)cc1` (stereo not given): the Ki on Histamine H2 receptor [1] was 12.9 µM; at Histamine H1 receptor [2], 7.76 µM; on Histamine H3 receptor [3] it was 0.0302 µM; on Histamine H3 receptor [4] it was 0.0813 µM.
As for `CCOC(=O)N1CCN(CCCOc2ccc(-c3cccs3)cc2)CC1`, the inhibition constant Ki is 33.1 µM at Histamine H2 receptor [1], 0.447 µM at Histamine H1 receptor [2] and 0.229 µM on Histamine H3 receptor [4].
On to `C[C@@]1(O)CCN(CCCOc2ccc(-c3ccc(C#N)cc3)cc2)C1`, for which the Ki is 15.1 µM on Histamine H2 receptor [1], 3.89 µM at Histamine H1 receptor [2], 0.00407 µM on Histamine H3 receptor [3] and 0.0155 µM at Histamine H3 receptor [4].
For `N#Cc1ccc(-c2ccc(OCCCN3CCCC3)cc2)cc1`, the inhibition constant Ki on Histamine H2 receptor [5] is 67.6 µM; at Histamine H1 receptor [6], 5.01 µM; on Histamine H3 receptor [7] it was 0.0417 µM; on Histamine H3 receptor [8] it was 0.00724 µM.
For `CCOC(=O)N1CCN(CCCOc2ccc(-c3ccc(Br)cc3)cc2)CC1`, the Ki on Histamine H2 receptor [1] is 1.66 µM; at Histamine H1 receptor [2], 0.182 µM; at Histamine H3 receptor [4] it was 0.112 µM.
Regarding `CCOC(=O)N1CCN(CCCOc2ccc(-c3ccc([N+](=O)[O-])cc3)cc2)CC1`, the Ki on Histamine H2 receptor [5] was 8.32 µM; on Histamine H1 receptor [6], 0.0813 µM; at Histamine H3 receptor [7], 0.0977 µM.
Regarding `N#Cc1ccc(-c2ccc(OCCCN3CC[C@H](O)C3)cc2)cc1`, the Ki is 19.1 µM at Histamine H2 receptor [5], 5.62 µM at Histamine H1 receptor [6], 0.126 µM on Histamine H3 receptor [7] and 0.0195 µM at Histamine H3 receptor [8].
Regarding `CN(C)[C@@H]1CCN(CCCOc2ccc(-c3ccc(C#N)cc3)cc2)C1`, the inhibition constant Ki at Histamine H2 receptor [1] is 10 µM; on Histamine H1 receptor [2], 1.91 µM; on Histamine H3 receptor [3], 0.00275 µM; at Histamine H3 receptor [4], 0.0135 µM.
Consider `CCOC(=O)N1CCN(CCCOc2ccc(-c3ccc(C#N)cc3)cc2)CC1`, for which the inhibition constant (Ki) at Histamine H2 receptor [1] is 28.8 µM; at Histamine H1 receptor [2], 0.158 µM; at Histamine H3 receptor [3] it was 1 µM; at Histamine H3 receptor [4], 0.0282 µM.
As to `CC1CCCN(CCCOc2ccc(-c3ccc(C#N)cc3)cc2)C1` (stereo not given), the inhibition constant Ki is 11.7 µM on Histamine H2 receptor [1], 0.275 µM on Histamine H1 receptor [2], 0.0017 µM at Histamine H3 receptor [3] and 0.0263 µM on Histamine H3 receptor [4].
For `CC1CCN(CCCOc2ccc(-c3ccc(C#N)cc3)cc2)CC1`, the Ki on Histamine H2 receptor [1] was 9.12 µM; on Histamine H1 receptor [2], 0.427 µM; at Histamine H3 receptor [3], 0.0138 µM; on Histamine H3 receptor [4] it was 0.00977 µM.
As for `CCOC(=O)N1CCN(CCCOc2ccc(-c3ccncc3)cc2)CC1`, the Ki is 57.5 µM at Histamine H2 receptor [1] and 3.72 µM on Histamine H1 receptor [2].
`N#Cc1ccc(-c2ccc(OCCCN3CC4CNCC4C3)cc2)cc1` (stereo not given): the Ki on Histamine H2 receptor [1] was 12.3 µM; at Histamine H1 receptor [2] it was 2.88 µM; at Histamine H3 receptor [3], 0.0151 µM; on Histamine H3 receptor [4] it was 0.0661 µM.
For the molecule `CCOC(=O)N1CCN(CCCOc2ccc(-c3ccc(OC(F)(F)F)cc3)cc2)CC1`, the results for the Ki on Histamine H2 receptor [1], on Histamine H1 receptor [2] and on Histamine H3 receptor [4] were 3.63 µM, 0.437 µM and 0.24 µM, respectively.
